The source of these data is US6646001B2, “Use of non-steroidal anti-inflammatory agents in combination with prostaglandin FP receptor agonists to treat glaucoma and ocular hypertension” (Alcon Manufacturing, Ltd., priority 1997, dated 2003).

A short description of the series: nepafenac concentration in ocular tissues of rabbits following a single topical dose. The note with it: topical ocular administration of 0.3% nepafenac, simple formulation without penetration enhancers. The format is in vivo. On the procedure:
The estimated concentration within the anterior chamber following topical ocular administration of 0.3% nepafenac to rabbits is 24 μM (see FIGS. 1 and 2). This concentration, achieved using a simple formulation without penetration enhancers, is in excess of the parent compounds' COX I and COX II IC50s. This enhanced bioavailability provides a significant advantage and is unexpected over other non-steroidal anti-inflammatory drugs as well as amide derivatives of non-steroidal anti-inflammatory drugs. The compounds disclosed in the '034 patent, the contents of which are incorporated herein by reference, are ester and amide derivatives of 3-benzoylphenylacetic acid.

For the compound `NC(=O)Cc1cccc(C(=O)c2ccccc2)c1N` [nepafenac, 2-Amino-3-benzoyl-phenylacetamide], the “estimated concentration within the anterior chamber” value was 24 µM.
